According to article PMC12357092, “Two stages of substrate discrimination dictate selectivity in the Escherichia coli MetNI-Q ABC transporter system” (The Journal of Biological Chemistry, 2025):
Read-outs that look alike come from different tables or passages of the source.

How the values were obtained:
[1] = target: MetQ (Escherichia coli) (UniProt P28635); settings: cited from earlier work
[2] = target: MetQ (Escherichia coli) (UniProt P28635); settings: cited from earlier work; remark: listed apart in the source
[3] = target: T1, MetQ (Escherichia coli, UniProt P28635, N229A); test: isothermal titration calorimetry; assay type: binding
T1 construct: secreted, non-lipidated periplasmic MetQ, C-terminal 6xHis, from E. coli BL21(DE3) Gold
T1 sequence (P28635 23-271 N229A): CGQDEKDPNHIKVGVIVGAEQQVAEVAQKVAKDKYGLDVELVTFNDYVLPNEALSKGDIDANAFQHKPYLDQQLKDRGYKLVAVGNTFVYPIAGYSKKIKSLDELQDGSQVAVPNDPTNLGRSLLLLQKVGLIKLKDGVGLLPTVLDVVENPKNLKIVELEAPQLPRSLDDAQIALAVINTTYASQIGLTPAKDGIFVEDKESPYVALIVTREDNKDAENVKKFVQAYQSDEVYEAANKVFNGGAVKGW

[4] = target: T2, MetNI (Escherichia coli, UniProt P30750); test: ATPase inhibition, EnzChek phosphate assay; assay type: biochemical
T2 construct: gene metN; DDM-solubilized full MetNI transporter (MetN2MetI2), His-tag purified, prepared as previously described; with D-methionine transport system permease protein MetI
Source text: ATPase inhibition, EnzChek phosphate assay on MetNI | we measured the inhibitory constants (Ki) for both L- and D-Met

[5] = target: T3, MetNI (Escherichia coli, UniProt P30750, N295A); test: ATPase inhibition, EnzChek phosphate assay; assay type: biochemical
T3 construct: gene metN; DDM-solubilized full MetNI transporter (MetN2MetI2), His-tag purified, prepared as previously described; with D-methionine transport system permease protein MetI
T3 sequence (P30750 whole entry N295A, one chain of several): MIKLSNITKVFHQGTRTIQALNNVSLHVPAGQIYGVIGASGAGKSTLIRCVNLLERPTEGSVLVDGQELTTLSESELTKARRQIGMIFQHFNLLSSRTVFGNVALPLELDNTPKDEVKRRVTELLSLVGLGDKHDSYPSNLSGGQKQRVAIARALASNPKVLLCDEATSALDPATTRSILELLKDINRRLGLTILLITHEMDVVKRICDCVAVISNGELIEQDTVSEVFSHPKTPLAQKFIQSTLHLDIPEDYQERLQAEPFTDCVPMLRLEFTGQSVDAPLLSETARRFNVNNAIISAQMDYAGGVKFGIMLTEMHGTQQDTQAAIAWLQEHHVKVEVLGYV

[6] = target: T4, MetQ (Escherichia coli, UniProt P28635); test: isothermal titration calorimetry; assay type: binding
T4 construct: secreted, non-lipidated periplasmic MetQ, C-terminal 6xHis, from E. coli BL21(DE3) Gold
T4 sequence (P28635 23-271): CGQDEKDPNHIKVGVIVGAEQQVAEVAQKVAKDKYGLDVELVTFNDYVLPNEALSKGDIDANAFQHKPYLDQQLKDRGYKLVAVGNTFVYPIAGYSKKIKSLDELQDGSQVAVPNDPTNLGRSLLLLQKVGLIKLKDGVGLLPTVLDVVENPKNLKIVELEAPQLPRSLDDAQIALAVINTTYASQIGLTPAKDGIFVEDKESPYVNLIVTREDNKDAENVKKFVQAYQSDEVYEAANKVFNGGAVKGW

[7] = target: T5, MetNI-Q (Escherichia coli, UniProt P28635+P31547); test: proteoliposome uptake of 3H-methionine; assay type: biochemical; settings: 50 μM L-Met, 50 μM WT MetQ, ATP-regenerating system in lumen, 5 mM MgCl2, pH 7.5, 37 °C; labelled compound
T5 construct: gene metQ
T5 sequence (P28635 23-271): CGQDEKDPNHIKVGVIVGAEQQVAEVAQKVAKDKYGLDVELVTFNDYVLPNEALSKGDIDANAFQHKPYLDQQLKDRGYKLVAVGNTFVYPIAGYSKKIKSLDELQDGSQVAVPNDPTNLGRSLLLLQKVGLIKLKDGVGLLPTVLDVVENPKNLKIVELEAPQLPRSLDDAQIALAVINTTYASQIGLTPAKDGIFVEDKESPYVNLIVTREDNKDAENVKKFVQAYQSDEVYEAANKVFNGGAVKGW
T5 sequence (P31547 1-217): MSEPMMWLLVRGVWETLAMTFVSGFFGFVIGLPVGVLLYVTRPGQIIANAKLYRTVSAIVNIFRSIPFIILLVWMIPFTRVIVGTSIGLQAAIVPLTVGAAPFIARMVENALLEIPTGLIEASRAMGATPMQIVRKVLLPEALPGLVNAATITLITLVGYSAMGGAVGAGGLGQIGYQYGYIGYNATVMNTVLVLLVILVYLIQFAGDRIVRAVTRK
T5 sequence (P30750 1-343 partner): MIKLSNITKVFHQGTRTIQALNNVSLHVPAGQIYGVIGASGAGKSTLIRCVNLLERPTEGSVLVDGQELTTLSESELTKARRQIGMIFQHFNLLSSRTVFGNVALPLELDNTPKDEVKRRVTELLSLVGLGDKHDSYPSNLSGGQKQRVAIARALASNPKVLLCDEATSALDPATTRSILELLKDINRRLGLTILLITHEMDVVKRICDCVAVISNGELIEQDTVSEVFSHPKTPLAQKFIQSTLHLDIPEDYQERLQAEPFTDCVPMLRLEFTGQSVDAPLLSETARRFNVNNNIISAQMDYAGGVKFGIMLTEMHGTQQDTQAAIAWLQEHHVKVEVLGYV

Row | Molecule | Kd [1] [µM] | Kd [2] [µM] | Kd [3] [µM] | Ki [4] [µM] | Ki [5] [µM] | Kd [6] [µM] | uptake rate [7]
1 | MetNI (from UniProt P30750) | 1.1 | 0.027 | – | – | – | – | –
2 | CSCC[C@@H](N)C(=O)O [D-Met] | – | – | 110 ± 30 | 5400 ± 100 | 2400 ± 400 | 6.6 ± 0.6 | –
3 | CSCC[C@H](N)C(=O)O [L-Met] | – | – | 300 ± 70 | 120 ± 20 | 3300 ± 300 | 0.0066 ± 0.0006 | L-Met was imported into proteoliposomes
